From patent US9661853B2, “Molecules having pesticidal utility, and intermediates, compositions, and processes, related thereto” (Dow AgroSciences LLC, priority 2015, dated 2017)

Experiments:
[1] = test system: Yellow Fever Mosquito (Aedes aegypti, AEDSAE); format: in vivo; conditions: 4000 ppm DMSO master solution diluted, about 1 day-old larvae, room temperature, scored after 3 days
Procedure: Bioassays on Yellow Fever Mosquito (Aedes aegypti, AEDSAE) (“YFM”)
Certain molecules disclosed in this document were tested against YFM using procedures described in the following paragraph. In the reporting of the results, the “YFM Rating Table” was used (See Table Section).
Master plates containing 400 μg of a molecule dissolved in 100 μL of dimethyl sulfoxide (DMSO) (equivalent to a 4000 ppm solution) are used. A master plate of assembled molecules contains 15 μL per well. To this plate, 135 μL of a 90:10 water/acetone mixture is added to each well. A robot (Biomek® NXP Laboratory Automation Workstation) is programmed to dispense 15 μL aspirations from the master plate into an empty 96-well shallow plate (“daughter” plate). There are 6 reps (“daughter” plates) created per master. The created “daughter” plates are then immediately infested with YFM larvae.
The day before plates are to be treated, mosquito eggs are placed in Millipore water containing liver powder to begin hatching (4 g into 400 mL). After the “daughter” plates are created using the robot, they are infested with 220 μL of the liver powder/larval mosquito mixture (about 1 day-old larvae). After plates are infested with mosquito larvae, a non-evaporative lid is used to cover the plate to reduce drying. […] After 3 days, each well is observed and scored based on mortality. […]

[2] = test system: Beet Armyworm (Spodoptera exigua, LAPHEG); experiment: Bioassay on Beet Armyworm (BAW), 128-well diet tray assay; format: in vivo; conditions: 168 h, 50 μg/cm^2 on artificial diet, second instar larvae, 25° C., five to seven days, average of eight wells, read-out: BAW % Control (or Mortality) rating
Procedure: (§1) Bioassays on Beet Armyworm (Spodoptera exigua, LAPHEG) (“BAW”) and Cabbage Looper (Trichoplusia ni, TRIPNI) (“CL”)
(§2) Certain molecules disclosed in this document were tested against BAW and CL using procedures described in the following examples. In the reporting of the results, the “BAW & CL Rating Table” was used (See Table Section).
Bioassays on BAW were conducted using a 128-well diet tray assay. One to five second instar BAW larvae were placed in each well (3 mL) of the diet tray that had been previously filled with 1 mL of artificial diet to which 50 μg/cm^2 of the test molecule (dissolved in 50 μL of 90:10 acetone-water mixture) had been applied (to each of eight wells) and then allowed to dry. Trays were covered with a clear self-adhesive cover, vented to allow gas exchange, and held at 25° C., 14:10 light-dark for five to seven days. Percent mortality was recorded for the larvae in each well; activity in the eight wells was then averaged. The results are indicated in the table entitled “Table ABC: Biological Results” (See Table Section).

[3] = test system: Cabbage Looper (Trichoplusia ni, TRIPNI); experiment: Bioassay on Cabbage Looper (CL), 128-well diet tray assay; format: in vivo; conditions: 168 h, 50 μg/cm^2 on artificial diet, second instar larvae, 25° C., five to seven days, average of eight wells, read-out: CL % Control (or Mortality) rating
Procedure: as §1, §2
Bioassays on CL were conducted using a 128-well diet tray assay. One to five second instar CL larvae were placed in each well (3 mL) of the diet tray that had been previously filled with 1 mL of artificial diet to which 50 μg/cm^2 of the test molecule (dissolved in 50 μL of 90:10 acetone-water mixture) had been applied (to each of eight wells) and then allowed to dry. Trays were covered with a clear self-adhesive cover, vented to allow gas exchange, and held at 25° C., 14:10 light-dark for five to seven days. Percent mortality was recorded for the larvae in each well; activity in the eight wells was then averaged. The results are indicated in the table entitled “Table ABC: Biological Results” (See Table Section).

| SMILES | melting point | YFM % Control (or Mortality) rating [1] | mortality at 50 µg/cm2 [2] [%] | mortality at 50 µg/cm2 [3] [%] |
| --- | --- | --- | --- | --- |
| CCCc1ccc(C)cc1N1C(=O)CS/C1=N\C(=O)Nc1ccc(CN(C)c2ncn(-c3ccc(OC(F)(F)F)cc3)n2)cn1 | 184 °C (dec.) |  |  |  |
| CCCc1ccc(C)cc1N1C(=O)CS/C1=N\C(=O)Nc1ccc(CNc2ncn(-c3ccc(OC(F)(F)F)cc3)n2)cc1 [F3, (Z)-1-(3-(5-Methyl-2-propylphenyl)-4-oxothiazolidin-2-ylidene)-3-(4-(((1-(4-(trifluoromethoxy)phenyl)-1H-1,2,4-triazol-3-yl)amino)methyl)phenyl)urea] |  | A (80-100) | 50 to 100 | 50 to 100 |
| CCCc1ccc(C)cc1N1C(=O)CS/C1=N\C(=O)Nc1ccc(CNc2ncn(-c3ccc(OC(F)(F)F)cc3)n2)cc1F [F5, (Z)-1-(2-Fluoro-4-(((1-(4-(trifluoromethoxy)phenyl)-1H-1,2,4-triazol-3-yl)amino)methyl)phenyl)-3-(3-(5-methyl-2-propylphenyl)-4-oxothiazolidin-2-ylidene)urea] |  | A (80-100) | 50 to 100 | 50 to 100 |
